Target: human LPAR1 (Homo sapiens (Human), UniProt Q92633)
Experiment: LPAR1 intracellular calcium mobilization assay (antagonist mode, FLIPR)
Assay type: cell-based
Settings: CHO-K1 EDG2 cells expressing human LPAR1, LPA 18:2 at EC80 (100 nM), test compound 0.5 nM to 10 μM

human LPAR1, sequence (Q92633 whole entry): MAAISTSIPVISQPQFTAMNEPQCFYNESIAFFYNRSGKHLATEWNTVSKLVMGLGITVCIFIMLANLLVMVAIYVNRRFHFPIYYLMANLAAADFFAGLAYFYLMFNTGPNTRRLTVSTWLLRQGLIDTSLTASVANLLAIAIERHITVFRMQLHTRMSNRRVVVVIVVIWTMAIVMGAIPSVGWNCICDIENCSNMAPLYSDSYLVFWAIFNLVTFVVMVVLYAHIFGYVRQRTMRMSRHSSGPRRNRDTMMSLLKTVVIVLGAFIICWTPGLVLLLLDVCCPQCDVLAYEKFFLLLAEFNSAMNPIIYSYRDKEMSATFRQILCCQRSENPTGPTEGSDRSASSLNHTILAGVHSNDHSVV

SMILES | EC50
C[C@@H](OC(=O)Nc1c(-c2ccc(NC(=O)C3(CF)CC3)cn2)nnn1C)c1cccnc1Cl [Compound 110, (R)-1-(2-chloropyridin-3-yl)ethyl (4-(5-(1-(fluoromethyl)cyclopropane-1-carboxamido)pyridin-2-yl)-1-methyl-1H-1,2,3-triazol-5-yl)carbamate] | 68.2 nM
C[C@@H](OC(=O)Nc1c(-c2ccc(NC(=O)C#CC(C)(C)O)cn2)nnn1C)c1cccnc1Cl [Compound 111, (R)-1-(2-chloropyridin-3-yl)ethyl (4-(5-(4-hydroxy-4-methylpent-2-ynamido)pyridin-2-yl)-1-methyl-1H-1,2,3-triazol-5-yl)carbamate] | 191 nM
C[C@@H](OC(=O)Nc1c(-c2ccc(NC(=O)c3cnn(C)c3)cn2)nnn1C)c1cccnc1Cl [Compound 112, (R)-1-(2-chloropyridin-3-yl)ethyl (1-methyl-4-(5-(1-methyl-1H-pyrazole-4-carboxamido)pyridin-2-yl)-1H-1,2,3-triazol-5-yl)carbamate] | 1400 nM
C[C@@H](OC(=O)Nc1c(-c2ccc(NC(=O)c3cn[nH]c3)cn2)nnn1C)c1cccnc1Cl [Compound 113, (R)-1-(2-chloropyridin-3-yl)ethyl (4-(5-(1H-pyrazole-4-carboxamido)pyridin-2-yl)-1-methyl-1H-1,2,3-triazol-5-yl)carbamate] | 775 nM
C[C@@H](OC(=O)Nc1c(-c2ccc(NC(=O)C34CCC(F)(CC3)CC4)cn2)nnn1C)c1cccnc1Cl [Compound 114, (R)-1-(2-chloropyridin-3-yl)ethyl (4-(5-(4-fluorobicyclo[2.2.2]octane-1-carboxamido)pyridin-2-yl)-1-methyl-1H-1,2,3-triazol-5-yl)carbamate] | 504 nM
C[C@@H](OC(=O)Nc1c(-c2ccc(NC(=O)C34CCC(O)(CC3)CC4)cn2)nnn1C)c1cccnc1Cl [Compound 115, (R)-1-(2-chloropyridin-3-yl)ethyl (4-(5-(4-hydroxybicyclo[2.2.2]octane-1-carboxamido)pyridin-2-yl)-1-methyl-1H-1,2,3-triazol-5-yl)carbamate] | 654 nM
C[C@@H](OC(=O)Nc1c(-c2ccc(NC(=O)C3(C(F)F)CC3)cn2)nnn1C)c1cccnc1Cl [Compound 116, (R)-1-(2-chloropyridin-3-yl)ethyl (4-(5-(1-(difluoromethyl)cyclopropane-1-carboxamido)pyridin-2-yl)-1-methyl-1H-1,2,3-triazol-5-yl)carbamate] | 322 nM
C[C@@H](OC(=O)Nc1c(-c2ccc(NC(=O)C34CC(O)(C3)C4)cn2)nnn1C)c1cccnc1Cl [Compound 117, (R)-1-(2-chloropyridin-3-yl)ethyl (4-(5-(3-hydroxybicyclo[1.1.1]pentane-1-carboxamido)pyridin-2-yl)-1-methyl-1H-1,2,3-triazol-5-yl)carbamate] | 1140 nM
C[C@@H](OC(=O)Nc1c(-c2ccc(NC(=O)CC(C)(C)O)cn2)nnn1C)c1cccnc1Cl [Compound 118, (R)-1-(2-chloropyridin-3-yl)ethyl (4-(5-(3-hydroxy-3-methylbutanamido)pyridin-2-yl)-1-methyl-1H-1,2,3-triazol-5-yl)carbamate] | 1340 nM
C[C@@H](OC(=O)Nc1c(-c2ccc(NC(=O)C3(C(F)F)CC(F)(F)C3)cn2)nnn1C)c1cccnc1Cl [Compound 119, (R)-1-(2-chloropyridin-3-yl)ethyl (4-(5-(1-(difluoromethyl)-3,3-difluorocyclobutane-1-carboxamido)pyridin-2-yl)-1-methyl-1H-1,2,3-triazol-5-yl)carbamate] | 49.9 nM
C[C@@H](OC(=O)Nc1c(-c2ccc(NC(=O)C3(C(F)(F)F)CC(=O)C3)cn2)nnn1C)c1cccnc1Cl [Compound 120, (R)-1-(2-chloropyridin-3-yl)ethyl (1-methyl-4-(5-(3-oxo-1-(trifluoromethyl)cyclobutane-1-carboxamido)pyridin-2-yl)-1H-1,2,3-triazol-5-yl)carbamate] | 2470 nM
C[C@@H](OC(=O)Nc1c(-c2ccc(NC(=O)[C@]3(C)C[C@H](C#N)C3)cn2)nnn1C)c1cccnc1Cl [Compound 121, (R)-1-(2-chloropyridin-3-yl)ethyl (4-(5-((1s,3S)-3-cyano-1-methylcyclobutane-1-carboxamido)pyridin-2-yl)-1-methyl-1H-1,2,3-triazol-5-yl)carbamate] | 264 nM
C[C@@H](OC(=O)Nc1c(-c2ccc(NC(=O)[C@]3(C)C[C@@H](C#N)C3)cn2)nnn1C)c1cccnc1Cl [Compound 122, (R)-1-(2-chloropyridin-3-yl)ethyl (4-(5-((1r,3R)-3-cyano-1-methylcyclobutane-1-carboxamido)pyridin-2-yl)-1-methyl-1H-1,2,3-triazol-5-yl)carbamate] | 123 nM
C[C@@H](OC(=O)Nc1c(-c2ccc(NC(=O)C3CC(F)(C#N)C3)cn2)nnn1C)c1cccnc1Cl (stereo partly drawn) [Compound 123, (R)-1-(2-chloropyridin-3-yl)ethyl (4-(5-(3-cyano-3-fluorocyclobutane-1-carboxamido)pyridin-2-yl)-1-methyl-1H-1,2,3-triazol-5-yl)carbamate] | 626 nM
C[C@@H](O)C(=O)Nc1ccc(-c2nnn(C)c2NC(=O)O[C@H](C)c2cccnc2Cl)nc1 [Compound 124, (R)-1-(2-chloropyridin-3-yl)ethyl (4-(5-((R)-2-hydroxypropanamido)pyridin-2-yl)-1-methyl-1H-1,2,3-triazol-5-yl)carbamate] | 3630 nM
C[C@H](O)C(=O)Nc1ccc(-c2nnn(C)c2NC(=O)O[C@H](C)c2cccnc2Cl)nc1 [Compound 125, (R)-1-(2-chloropyridin-3-yl)ethyl (4-(5-((S)-2-hydroxypropanamido)pyridin-2-yl)-1-methyl-1H-1,2,3-triazol-5-yl)carbamate] | 2710 nM
C[C@@H](OC(=O)Nc1c(-c2ccc(NC(=O)CO)cn2)nnn1C)c1cccnc1Cl [Compound 126, (R)-1-(2-chloropyridin-3-yl)ethyl (4-(5-(2-hydroxyacetamido)pyridin-2-yl)-1-methyl-1H-1,2,3-triazol-5-yl)carbamate] | 1830 nM
C[C@@H](OC(=O)Nc1c(-c2ccc(NC(=O)[C@H]3C[C@H](C#N)C3)cn2)nnn1C)c1cccnc1Cl [Compound 127, (R)-1-(2-chloropyridin-3-yl)ethyl (4-(5-((1r,3R)-3-cyanocyclobutane-1-carboxamido)pyridin-2-yl)-1-methyl-1H-1,2,3-triazol-5-yl)carbamate] | 416 nM
C[C@@H](OC(=O)Nc1c(-c2ccc(NC(=O)[C@H]3C[C@@H](C#N)C3)cn2)nnn1C)c1cccnc1Cl [Compound 128, (R)-1-(2-chloropyridin-3-yl)ethyl (4-(5-((1s,3S)-3-cyanocyclobutane-1-carboxamido)pyridin-2-yl)-1-methyl-1H-1,2,3-triazol-5-yl)carbamate] | 309 nM
C[C@@H](OC(=O)Nc1c(-c2ccc(NC(=O)C(C)(C)C#N)cn2)nnn1C)c1cccnc1Cl [Compound 129, (R)-1-(2-chloropyridin-3-yl)ethyl (4-(5-(2-cyano-2-methylpropanamido)pyridin-2-yl)-1-methyl-1H-1,2,3-triazol-5-yl)carbamate] | 492 nM
C[C@@H](OC(=O)Nc1c(-c2ccc(NC(=O)C3CC3C#N)cn2)nnn1C)c1cccnc1Cl (stereo partly drawn) [Compound 130, (R)-1-(2-chloropyridin-3-yl)ethyl (4-(5-(2-cyanocyclopropane-1-carboxamido)pyridin-2-yl)-1-methyl-1H-1,2,3-triazol-5-yl)carbamate] | 271 nM
C[C@@H](OC(=O)Nc1c(-c2ccc(NC(=O)C3(F)CC(F)C3)cn2)nnn1C)c1cccnc1Cl (stereo partly drawn) [Compound 131, (R)-1-(2-chloropyridin-3-yl)ethyl (4-(5-(1,3-difluorocyclobutane-1-carboxamido)pyridin-2-yl)-1-methyl-1H-1,2,3-triazol-5-yl)carbamate] | 260 nM
C[C@@H](OC(=O)Nc1c(-c2ccc(NC(=O)C3(C#N)CC(F)C3)cn2)nnn1C)c1cccnc1Cl (stereo partly drawn) [Compound 132, (R)-1-(2-chloropyridin-3-yl)ethyl (4-(5-(1-cyano-3-fluorocyclobutane-1-carboxamido)pyridin-2-yl)-1-methyl-1H-1,2,3-triazol-5-yl)carbamate] | 197 nM
C[C@@H](OC(=O)Nc1c(-c2ccc(NC(=O)[C@]3(F)C[C@H](O)C3)cn2)nnn1C)c1cccnc1Cl [Compound 133, (R)-1-(2-chloropyridin-3-yl)ethyl (4-(5-((1r,3R)-1-fluoro-3-hydroxycyclobutane-1-carboxamido)pyridin-2-yl)-1-methyl-1H-1,2,3-triazol-5-yl)carbamate] | 344 nM
C[C@@H](OC(=O)Nc1c(-c2ccc(NC(=O)[C@]3(F)C[C@@H](O)C3)cn2)nnn1C)c1cccnc1Cl [Compound 134, (R)-1-(2-chloropyridin-3-yl)ethyl (4-(5-((1s,3S)-1-fluoro-3-hydroxycyclobutane-1-carboxamido)pyridin-2-yl)-1-methyl-1H-1,2,3-triazol-5-yl)carbamate] | 449 nM
C[C@@H](OC(=O)Nc1c(-c2ccc(NC(=O)C3(C#N)CC(O)C3)cn2)nnn1C)c1cccnc1Cl (stereo partly drawn) [Compound 135, (R)-1-(2-chloropyridin-3-yl)ethyl (4-(5-(1-cyano-3-hydroxycyclobutane-1-carboxamido)pyridin-2-yl)-1-methyl-1H-1,2,3-triazol-5-yl)carbamate] | 726 nM
C[C@@H](OC(=O)Nc1c(-c2ccc(NC(=O)C3CC(O)(C(F)(F)F)C3)cn2)nnn1C)c1cccnc1Cl (stereo partly drawn) [Compound 136, (R)-1-(2-chloropyridin-3-yl)ethyl (4-(5-(3-hydroxy-3-(trifluoromethyl)cyclobutane-1-carboxamido)pyridin-2-yl)-1-methyl-1H-1,2,3-triazol-5-yl)carbamate] | 602 nM
C[C@@H](OC(=O)Nc1c(-c2ccc(NC(=O)[C@@H]3C[C@@H]3C#N)cn2)nnn1C)c1cccnc1Cl [Compound 137, (R)-1-(2-chloropyridin-3-yl)ethyl (4-(5-((1R,2S)-2-cyanocyclopropane-1-carboxamido)pyridin-2-yl)-1-methyl-1H-1,2,3-triazol-5-yl)carbamate] | 1090 nM

From patent US11912686B2 (Gilead Sciences, Inc., priority 2020, dated 2024)
